Laboratory results published in US7453006B2, “Inositol derivatives for increasing chloride secretion and inhibiting inflammation” (Inologic, Inc., priority 2000, dated 2008).
Values joined by “and” are separate entries in the source; they are usually repeats but may differ in a detail not shown here. Equal entries are not always repeated. “Also recorded” adds a separate entry of the source.

Legend:
[1] = test system: arachidonic acid-induced inflammation in mouse ears; test: arachidonic acid-induced inflammation in mouse ears; format: in vivo; settings: for Ear Thickness: 20 nanomoles/ear topical 30 min before arachidonic acid, measured 60 min after arachidonic acid, control 56.5 ± 1.57
Protocol: Arachidonic Acid (Nu-Chek, Elysian, Minn. 56028); Indomethacin (stock=12.5 mg/mL acetone). Prednisolone (Sigma Chem, P6004) 20 mM dissolved in acetone; Animals: Female Balb/c mice (B&K laboratories) and Swiss-Webster hybrid (B& K Laboratory, Kent, Wash.)
The right ear of each mouse was used for the test compound. Unless otherwise indicated each compound was adjusted to 20 mM by dilution into DMSO or DMSO/5% Pluronic F127 as indicated and 1 or 2 microliters were applied to the test ear. Thirty minutes after each compound was applied, 4 mg arachidonic acid was applied (4 μL/ear; 2 μL/side) to both ears of each mouse. Measurements of edema were taken 60 min after the application of arachidonic acid with microcalipers (Oditest, Scientific Supply and Equipment) unless otherwise indicated. The results are shown in FIG. 15 as millimeters×10^−2 measured at the thickest point of each ear. Control measurements were performed on ears that were only treated with arachidonic acid.
Response to prednisolone (20 μL of 20 mM/ear; 10 μl/side) added 3 hrs prior 20′ to arachidonic acid or indomethacin (5 μg/ear) added 30 min prior to test compounds was determined. The results are shown in Table A, where the anti-inflammatory/inflammatory effects of 20 nanomoles/ear of the indicated compounds were tested as described in Methods. Each plus represents a change from control (arachidonic acid alone) of 2.5 mm×10^−2. Effects were compared with those of Indomethacin (400 nmols/ear).
Acute inflammation: Membrane permeant inositol polyphosphate analogs were administered topically and tested for inhibition of inflammatory symptoms induced by arachidonic acid on the ear of Swiss Webster mice.

[2] = test system: CF Human Nasal Epithelial (CFHNE) cells; test: Cystic Fibrosis Human Nasal Epithelial Cell Assay (Isc, Ussing chambers); format: cell-based
Protocol: CF Human Nasal Epithelial (CFHNE) Cell Isolation and Proliferation
Nasal Polyps were surgically obtained from a CF patient at Children's Hospital (Seattle, Wash.), transported on ice in a sterile container containing a 1:1 mixture of Dulbecco's modification of minimum essential medium Eagle and Ham's F-12 nutrient medium (DMEM/F-12) (Irvine Scientific, Santa Ana, Calif.) supplemented with 100 U/mL penicillin, 0.1 mg/mL streptomycin, 10 mM HEPES, and 2 mM L-glutamine. The tissue samples were aseptically removed from the transport medium and washed (repeated 5 times) by suspending in 40 mL of Joklik's modification of minimum essential medium Eagle (JMEM) at 4° C., and centrifuging at 500 rpm. The supernatant was aspirated and discarded. The tissue was then transferred to JMEM containing 200 U/mL penicillin, 0.2 mg/mL streptomycin, 0.1 mg/mL gentamycin sulfate (Clonetics, San Diego, Calif.), and 0.1 μg/mL amphotericin-B (Clonetics), and 0.1% Protease, washed an additional two times, suspended in […] in a 10 cm tissue culture dish, and incubated at 4° C. for 24 hours. The tissue samples were then gently triturated, the connective tissue aseptically removed, and the remaining cell suspension centrifuged at 1000 rpm. The supernatant was aspirated and the pellet was resuspended in 10 mL proliferation media, consisting of Keratinocyte-Serum Free Medium (KSFM) (Gibco-BRL, Grand Island, N.Y.) containing 5 ng/ml EGF (Gibco), 50 μg/mL BPE (Gibco), 5 μg/mL insulin, 5 μg/mL transferrin, 5 μg/ml sodium selenite, 10 nM 3,3′,5-triiodo-L-thyronine, 200 nM hydrocortisone, 100 U/mL penicillin, 0.1 mg/mL streptomycin, and 2 mM L-glutamine. The cell suspension was transferred to 2.10 cm tissue culture dishes coated with 3 μg/cm^2 rat-tail collagen (Type I) (Becton-Dickinson, Bedford, Mass.), incubated at 37° C. in an humidified atmosphere of 5% CO2 and 95% air. The cells were allowed to grow for 6 days (˜70% confluence) with the media being replaced with fresh media every other day. The cells were then trypsinized using 0.025% trypsin-EDTA for 5 min. The cell suspension was collected, the trypsin deactivated with 10% Fetal Bovine Serum, and centrifuged at 1000 rpm for 5 min. The cells were then counted using an hemocytometer with a yield of 3×10^6 cells per dish. The supernatant was aspirated and the cells were resuspended in KSFM and plated at a density of 10^4 cells/cm^2.
CFHNE Cell Ussing Chamber Preparation
The CFHNE cells were prepared for Ussing Chamber studies using Snapwell permeable supports (0.4 μm pore size) (Corning Costar, Cambridge, Mass.) coated with 3 μg/cm^2 rat-tail collagen (type 1). Cells were plated at 9×10^3 cells/cm^2 in KSFM. After 2 days, an air-liquid interface (ALI) was initiated in DMEM/F-12 containing: 2% Fetal Clone III (Hyclone, Logan, Utah), 2.5 μg/mL insulin, 2.5 μg/mL transferrin, 2.5 μg/mL sodium selenite, 20 nM hydrocortisone, 1.5 μM epinephrine, 50 μg/mL BPE, 1 nM 3,3′,5-triiodo-L-thyronine, 3.3 nM All-trans retinoic acid, 250 nM ethanolamine, 250 nM O-phosporylethanolamine, 100 U/mL penicillin, 0.1 mg/ml streptomycin, and 2 mM L-glutamine. The CFHNE monolayers reached maximal resistance (˜200 Ω/cm^2) 5-7 days after initiation of ALI. All media/reagents, unless otherwise specified, were supplied by Sigma Chemical Co., St. Louis, Mo.

T84 cells = test: Colonic Epithelial Cell Assay (Isc across T84 monolayers, Ussing chambers); format: cell-based, human; settings: for increase in short circuit current (Isc): T84 monolayers in Ussing chambers, differing concentrations (text: colonic and airway epithelial cells)
Protocol: Cl^− secretion in colonic epithelial cells was measured as short circuit current (Isc) across T84 monolayers grown to confluence on Snap-wells (Costar) and mounted in Ussing chambers equipped with voltage clamps (Physiologic Instruments, San Diego). Data was acquired and analyzed using AAcquire and Analyze@ software (Physiologic Instruments). T84 cells (passages 18-48) were maintained as described previously in McRoberts, J. A. et al., “Cyclic AMP and Ca^2+-activated K^+ transport pathway in the apical membrane of a human colonic epithelial cell line,” J. Biol. Chem. 260:14163-14172 (1985). After […] of incubation on Snap-wells, monolayers had formed tight junctions and were preincubated with […] Bt2D-myo-Ins(3,4,5,6)P4/AM for 30-min. prior to mounting. An extracellular concentration of 200 uM corresponds to an intracellular concentration of 4 uM (Vajanaphnich, et al., “Long-term uncoupling of chloride secretion from intracellular calcium levels by Ins(3,4,5,6)P4,” Nature 371:711-714 (1994)). […]

[3] = 200 μM, 30 min preincubation, T84
[4] = topical, ear of Swiss Webster mice

Compound: CC(=O)OCOP(=O)(OCOC(C)=O)O[C@@H]1[C@@H](OP(=O)(OCOC(C)=O)OCOC(C)=O)[C@@H]2O[C@H]3CCC[C@@]2(O3)[C@H](OP(=O)(OCOC(C)=O)OCOC(C)=O)[C@H]1OP(=O)(OCOC(C)=O)OCOC(C)=O [Tri-cyclo, (1S, 2R, 3S, 4R, 5S, 6S, 8R)-2,3,4,5-tetrakis[[bis-(acetoxymethoxy)phosphoryl]oxy]-7,12-dioxa-tricyclo-[6.3.1.0(1,6)]-dodecane]
- Ear Thickness [1]: 49.8 ± 2.5 mm × 10^−2

Compound: N=C(N)NC(=O)c1nc(Cl)c(N)nc1N [Amiloride, amiloride, reference compound]
- decrease in Isc ([2]; amiloride 100 μM, apical compartment, in 19 of 23 monolayers): 1.01 μAmps/cm^2

Compound: CCCC(=O)OC12CCCOC1C(OP(=O)(OCOC(C)=O)OCOC(C)=O)C(OP(=O)(OCOC(C)=O)OCOC(C)=O)C(OP(=O)(OCOC(C)=O)OCOC(C)=O)C2OP(=O)(OCOC(C)=O)OCOC(C)=O (centres unmarked) [Compound G, (4aa, 5a,6b,7a,8b,8aa)-5,6,7,8-tetrakis[[bis(acetoxymethoxy)-phosphoryl]oxy]-4a-butyryloxy-octahydro-chromen]
- Isc response to carbachol (T84 cells; [3]): did not affect
- Isc response to thapsigargin following carbachol (T84 cells; [3]): reversed the inhibition of thapsigargin induced chloride secretion; also recorded: reverses the carbachol-mediated inhibition of thapsigargin-stimulated increase in Isc

Compound: CCCC(=O)OC1C(OC(=O)CCC)C(OP(=O)(OCOC(=O)CC)OCOC(=O)CC)C(OP(=O)(OCOC(=O)CC)OCOC(=O)CC)C(OP(=O)(OCOC(=O)CC)OCOC(=O)CC)C1OP(=O)(OCOC(=O)CC)OCOC(=O)CC [D-2,3-Di-O-butyryl-myo-inositol 1,4,5,6 tetrakisphosphate octakis(propionoxymethyl)ester]
- topical anti-inflammatory effects, values [1, 4]: 0.25-1.5 μg/animal

Compound: 2,3,5-tri-O-butyryl-myo-inositol 1,4,6-trisphosphate hexakis-(acetoxymethyl) ester [TMX/AM]
- Ear Thickness [1]: 44.1 ± 2.3 mm × 10^−2

Compound: Nc1ncnc2c1ncn2[C@@H]1O[C@H](COP(=O)(O)OP(=O)(O)OP(=O)(O)O)[C@@H](O)[C@H]1O [ATP, adenosine triphosphate, reference compound]
- Isc after ATP ([2]; ATP 10^−4 M, monolayers pretreated with vehicle): transient increase in Isc followed by a prolonged decrease

Compound: CCCC(=O)OC1C(OP(=O)(OCOC(C)=O)OCOC(C)=O)C(OP(=O)(OCOC(C)=O)OCOC(C)=O)C(OP(=O)(OCOC(C)=O)OCOC(C)=O)C(OP(=O)(OCOC(C)=O)OCOC(C)=O)C1(CCC)OP(=O)(OCOC(C)=O)OCOC(C)=O (racemic) [Compound D, rac-1-O-butyryl-2-C-propyl-myo-inositol 2,3,4,5,6-pentakisphosphate-dekakis(acetoxymethyl) ester]
- basal Isc (T84 cells; 200 μM, acute treatment, T84): small increase in basal Isc; also recorded: small acute effect increasing basal Isc
- subsequent carbachol-stimulated Isc (T84 cells; 200 μM, acute treatment, T84): little effect
- Ear Thickness [1]: 44.0 ± 1.4 mm × 10^−2 and 44.2 ± 6.5 mm × 10^−2

Compound: 2,3,5-tri-O-butyryl-myo-inositol 1,4,6-trisphosphate hexakis(proprionoxymethyl)ester [TMX]
- increase in short circuit current (Isc) (T84 cells): prolonged increase in Isc similar to cyclic AMP
- prolonged decrease in Isc after ATP (negative component of the ATP effect) ([2]; CFHNE monolayers exposed to TMX for 10 min, ATP 10^−4 M): attenuated; also recorded: reverse the negative component of the ATP effect on Isc

Compound: CCCC(=O)OC1C(OC(=O)CCC)C(OP(=O)(OCOC(C)=O)OCOC(C)=O)C(OP(=O)(OCOC(C)=O)OCOC(C)=O)C(OP(=O)(OCOC(C)=O)OCOC(C)=O)C1OP(=O)(OCOC(C)=O)OCOC(C)=O [D-2,3-Di-O-butyryl-myo-inositol 1,4,5,6 tetrakisphosphate octakis(acetoxymethyl)ester, reference compound]
- dose with inhibitory effect comparable in intensity to that of indomethacin (250 μg/animal) [1, 4]: 20-30 μg/animal

Compound: CCCC(=O)O[C@@H]1[C@H](OC(=O)CCC)[C@H](OP(=O)(OCOC(=O)CC)OCOC(=O)CC)[C@@H](OP(=O)(OCOC(=O)CC)OCOC(=O)CC)[C@H](OC(=O)CCC)[C@H]1OP(=O)(OCOC(=O)CC)OCOC(=O)CC [ent-TMX, 1,2,5-tri-O-butyryl-myo-inositol 3,4,6-trisphosphate hexakis-(proprionoxymethyl) ester]
- increase in short circuit current (Isc) (T84 cells): inactive
